{"source": "patent US6818637B2", "about": "“Polyhydroxypyrazine derivatives, their preparation and the pharmaceutical compositions which comprise them” (Aventis Pharma SA, priority 1999, dated 2004)", "system": "hyperglycemic response to the oral administration of glucose", "experiment": "Inhibition of the hyperglycemic response to oral glucose in the normoglycemic mouse", "assay_type": "in vivo, Swiss albino mice", "conditions": "mice, administration at 3 mg/kg; reference 2-(1,2,3,4-tetrahydroxybutyl)-5-(2′,3′,4′-trihydroxybutyl)]pyrazine", "protocol": "The hypoglycemic activity of the products of formula (I) was determined with respect to the hyperglycemic response to the oral administration of glucose in the normoglycemic mouse, according to the protocol described in Example 3. Swiss albino mice weighing between 22 and 26 g are left without nourishment for 2 hours. At the end of this period, the glycemia is measured and, immediately after, a dose of glucose (2 g/kg) is administered orally. Thirty minutes later, the glycemia is once again measured. The mice which respond by a hyperglycemia greater than 170 mg/dl are selected and used to detect the hypoglycemic activity of the products according to the invention. The mice thus chosen are divided into groups of at least 10 animals. Several groups receive doses of 3 to 50 mg/kg of product in a vehicle, such as water or a mixture of methylcellulose/tween and water, once daily by gastric intubation. The treatment lasts 4 days. On the 4th day, after the final treatment, the animals receive a dose of glucose (2 g/kg) and the glycemia is measured 20 to 40 minutes later. The percentage of inhibition of the hyperglycemic response to the administration of glucose is calculated with respect to the response measured in the group treated with the vehicle."}
{"smiles": "O=C(OC[C@@H](O)[C@@H](O)[C@H](O)c1cnc(C[C@H](O)[C@H](O)COC(=O)C2CCCCC2)cn1)C1CCCCC1", "note": "[Example 1, 4,4′-O,O-Dicyclohexyloyl-2-[(1R,2S,3R)(1,2,3,4-tetrahydroxylbutyl)]-5-[(2′S,3′R)(2′,3′,4′-trihydroxybutyl)]pyrazine]", "values": [{"measurement": "relative activity with respect to the reference product", "value": 149, "unit": "%"}]}
